From ChEMBL document CHEMBL1201862, “PubChem BioAssay data set” (2004) come the findings set out here.

What all share (experiment): NCI tumour cell line growth inhibition, 48 h
For assay [1], the system named is SR.
Assay [2] relates to SK-MEL-5.
The test system of assay [3] is HCT-116.
The subject of assay [4] is A498.
For assay [5], the system named is OVCAR-4.
Assay [6] relates to RPMI-8226.
For assay [7], the system named is OVCAR-8.
Assay [8] concerns NCI-H522.
Assay [9] concerns CAKI-1.
For assay [10], the system named is HOP-92.
Assay [11] relates to UACC-257.
Assay [12] deals with HOP-62.
Assay [13] deals with HCT-15.
The test system of assay [14] is COLO 205.
For assay [15], the system named is SF-268.
Assay [16] deals with MCF7.
Assay [17] concerns MDA-MB-231.
Assay [18] has as its system M14.
The subject of assay [19] is IGROV-1.

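Step 1: Grow cells in 96-well plates. Step 2: Expose to compound for 48 hours at 5 concentrations. Step 3: Interpolate endpoints linearly; if unreached, use highest concentration. Here, GI50 denotes the concentration required for 50% inhibition of growth.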 Calls of active or inactive are those of the source. No stated cut-off is given here; in the data, active = GI50 up to about 1.1 µM and inactive = higher. Square brackets hold non-standard residues; d marks the D form. Peptide text beside a SMILES is read from it. * marks the point of attachment. NMeV = CN[C@H](C(=O)O)C(C)C; X28 = COc1ccc(CN*)c(OC)c1; Octanoyl = CCCCCCCC(=O)*; dNMeA = CN[C@H](C)C(=O)O

Turning to `C=C1C(=O)O[C@H]2[C@H]1[C@H](OC(=O)/C(C)=C\C)C[C@]1(CO1)[C@@H]1[C@H](OC(C)=O)C=C(C)[C@]21O` [EUPAROTIN ACETATE], the GI50 in assay [1] is 3.64 µM (inactive); in assay [2], 17 µM (inactive); in [3], 6.58 µM (inactive); in assay [4] it was 1.24 µM (inactive); in assay [5], 32.8 µM (inactive); in [6], 4.82 µM (inactive). The GI50 in assay [7] was 30.8 µM (inactive); in assay [8] it was 3.31 µM (inactive); in [9], 17.3 µM (inactive); in assay [10], 15 µM (inactive); in assay [11], 17.7 µM (inactive); in [12], 74 µM (inactive). The GI50 was 13.3 µM in assay [13]; 5.24 µM (inactive) in assay [14]; 19.2 µM (inactive) in assay [15]; 6.79 µM (inactive) in assay [16]; 16.5 µM (inactive) in [17]; 21.6 µM (inactive) in [18]. Further, the GI50 in [19] was 19.5 µM (inactive).
Turning to `CCCCCCCC(=O)N[C@H](C(=O)N[C@H](C(=O)N(C)[C@H](C(=O)N1CCC[C@H]1C(=O)N(C)[C@H](C)C(=O)NCc1ccc(OC)cc1OC)C(C)C)C(C)C)C(C)C` (Octanoyl-VV[NMeV]P[dNMeA]-X28), the GI50 in assay [1] is 17.6 µM (inactive); in assay [2], 3.3 µM (inactive); in [3] it was 5.93 µM (inactive); in [4], 1.95 µM (inactive); in assay [5], 6.14 µM (inactive); in [6], 3.02 µM (inactive). Moreover, the GI50 in assay [7] is 5.58 µM (inactive); in assay [8], 7.21 µM (inactive); in [9] it was 16.4 µM (inactive); in assay [10] it was 7.6 µM (inactive); in assay [11], 5.21 µM (inactive); in [12], 20.4 µM (inactive). Moreover, the GI50 was 21.5 µM in assay [13]; 5.74 µM (inactive) in assay [14]; 15.2 µM (inactive) in assay [15]; 7.53 µM (inactive) in assay [16]; 10.5 µM (inactive) in assay [17]; 7.82 µM (inactive) in [18]. In addition, the GI50 in [19] is 3.75 µM (inactive).
For the molecule `COc1cc2c(cc1OC)C1C=NC(C2)c2cc(OC)c(OC)cc21` (stereo not drawn), the GI50 in assay [1] is 69.3 µM (inactive); in [2], 40.5 µM (inactive); in [3], > 100 µM (inactive); in assay [4], > 100 µM (inactive); in assay [5], > 100 µM (inactive); in assay [6] it was 60.3 µM (inactive). Besides, the GI50 in [7] is 96.2 µM (inactive); in assay [8], 46.3 µM (inactive); in assay [9] it was 97.7 µM (inactive); in [10], 4.49 µM (inactive); in assay [11] it was > 100 µM (inactive); in assay [12] it was > 100 µM (inactive). The GI50 in assay [13] was 85.9 µM; in [14], 89.7 µM (inactive); in [15] it was > 100 µM (inactive); in [16], 60.1 µM (inactive); in assay [17] it was > 100 µM (inactive); in [18], > 100 µM (inactive). In assay [19], the GI50 was 96.4 µM (inactive).
Regarding `O=C1OC(c2ccccc2)=N/C1=C\c1ccc(Br)cc1`, the GI50 in assay [1] was 66.2 µM (inactive); in assay [2] it was > 100 µM (inactive); in [3] it was > 100 µM (inactive); in assay [4] it was > 100 µM (inactive); in [5], > 100 µM (inactive); in assay [6] it was 96.6 µM (inactive). Moreover, the GI50 in assay [7], in assay [8], in assay [9], in [10], in [11] and in assay [12] was > 100 µM (inactive) in each case. Moreover, the GI50 was greater than 100 µM in assay [13]; > 100 µM (inactive) in [14]; > 100 µM (inactive) in assay [15]; > 100 µM (inactive) in [16]; > 100 µM (inactive) in assay [17]; > 100 µM (inactive) in [18]. For the same molecule, the GI50 in [19] is > 100 µM (inactive).
For `O=C1CSC(c2ccc(Cl)cc2)N1c1ccc(-n2c(-c3ccccc3)nc3ccccc3c2=O)cc1` (stereo not drawn), the GI50 in assay [1] is 77.4 µM (inactive); in assay [2], 54.7 µM (inactive); in [3] it was 34.3 µM (inactive); in [4], 83.4 µM (inactive); in [5], 12.9 µM (inactive); in assay [6], > 100 µM (inactive). The GI50 was > 100 µM (inactive) in [7]; 25.9 µM (inactive) in assay [8]; > 100 µM (inactive) in [9]; 10.3 µM (inactive) in assay [10]; > 100 µM (inactive) in [11]; > 100 µM (inactive) in [12]. The GI50 in assay [13] is 20.4 µM; in assay [14], > 100 µM (inactive); in assay [15], 88.1 µM (inactive); in assay [16] it was 30.8 µM (inactive); in assay [17], 33.2 µM (inactive); in assay [18], > 100 µM (inactive). Also, in assay [19], the GI50 is 31.9 µM (inactive).
Take `Nc1ncnc2c1ccn2C1OC2COP(=O)(O)OC2C1O` (stereo not drawn): the GI50 is 0.173 µM (active) in assay [1]; 0.327 µM (active) in assay [2]; 0.17 µM (active) in [3]; 1.15 µM (inactive) in assay [4]; 0.174 µM (active) in assay [5]; 0.124 µM (active) in assay [6]. Further, the GI50 in [7] is 0.0773 µM (active); in assay [8], 0.14 µM (active); in assay [9], 0.0904 µM (active); in assay [10], 0.462 µM (active); in assay [11], 1.26 µM (inactive); in assay [12], 0.501 µM (active). The GI50 in assay [13] is 0.152 µM; in [14], 0.181 µM (active); in [15], 0.46 µM (active); in assay [16], 0.444 µM (active); in [17] it was 0.33 µM (active); in [18] it was 0.069 µM (active). Further, in assay [19], the GI50 is 0.488 µM (active).
Turning to `CC[C@@]1(O)C(=O)OCc2c1cc1n(c2=O)Cc2c-1nc1ccccc1c2/C=N\NC(=O)CN`, the GI50 is < 0.0125 µM (active) in [1]; 0.252 µM (active) in [2]; 0.419 µM (active) in [3]; 0.488 µM (active) in assay [4]; 9.46 µM (inactive) in assay [5]; 0.147 µM (active) in assay [6]. Moreover, the GI50 was 0.273 µM (active) in assay [7]; 1.02 µM (active) in assay [8]; 0.131 µM (active) in assay [9]; 1.15 µM (inactive) in [10]; 2.49 µM (inactive) in [11]; 0.0533 µM (active) in assay [12]. Further, the GI50 in assay [13] is 0.221 µM; in [14], 15.6 µM (inactive); in [15], 0.0387 µM (active); in assay [16], 0.0495 µM (active); in [17], 23 µM (inactive); in assay [18], 0.126 µM (active). For the same molecule, in assay [19], the GI50 was 2.59 µM (inactive).
